Measured values as given in ChEMBL document CHEMBL4000218, “Explicit treatment of active-site waters enhances quantum mechanical/implicit solvent scoring: Inhibition of CDK2 by new pyrazolo[1,5-a]pyrimidines” (Eur J Med Chem, 2017).

Target: Cyclin-dependent kinase 2/cyclin E1 (Homo sapiens, UniProt P24941)
Assay: Inhibition of CDK2/cyclin E (unknown origin) expressed in baculovirus infected insect Sf9 cells using histone H1 as substrate in presence of [gamma-33P]ATP

Structure (SMILES)	IC50
Oc1ccc(-c2ccc(-c3cc(NCc4cccnc4)n4ncc(Br)c4n3)cc2)cc1	140 nM
N#CCCc1cc(-c2ccc(-c3cc(NCc4cccnc4)n4ncc(Br)c4n3)cc2)ccc1C(N)=O	53 nM
CN(C)C(=O)c1ccc(-c2ccc(-c3cc(NCc4cccnc4)n4nccc4n3)cc2)cc1	1970 nM
NC(=O)c1ccc(-c2ccc(-c3cc(NCc4cccnc4)n4ncc(Br)c4n3)cc2)cc1O	52 nM
CN(C)C(=O)c1ccc(-c2ccc(-c3cc(NCc4cccnc4)n4ncc(Br)c4n3)cc2)cc1	64 nM
OCc1ccc(-c2ccc(-c3cc(NCc4cccnc4)n4ncc(Br)c4n3)cc2)cc1	45 nM
Nc1ccc(-c2ccc(-c3cc(NCc4cccnc4)n4nccc4n3)cc2)cc1	4910 nM
NC(=O)c1ccc(-c2ccc(-c3cc(NCc4cccnc4)n4ncc(Br)c4n3)cc2)c(O)c1	15 nM

Second part, the compound after the results:

IC50	Structure (SMILES)
490 nM	Brc1cnn2c(NCc3cccnc3)cc(-c3ccc(-c4ccccc4)cc3)nc12
3940 nM	NC(=O)c1ccc(-c2ccc(-c3cc(NCc4cccnc4)n4nccc4n3)cc2)cc1
18 nM	CCc1cnn2c(NCc3cccnc3)cc(-c3ccc(-c4ccc(C(N)=O)cc4)cc3)nc12
5450 nM	N#CCCc1cc(-c2ccc(-c3cc(NCc4cccnc4)n4nccc4n3)cc2)ccc1C(N)=O
6110 nM	OCc1ccc(-c2ccc(-c3cc(NCc4cccnc4)n4nccc4n3)cc2)cc1
31 nM	CCc1cnn2c(NCc3cccnc3)cc(-c3ccc(-c4ccc(C(N)=O)c(O)c4)cc3)nc12
140 nM	Nc1ccc(-c2ccc(-c3cc(NCc4cccnc4)n4ncc(Br)c4n3)cc2)cc1
3860 nM	Oc1ccc(-c2ccc(-c3cc(NCc4cccnc4)n4nccc4n3)cc2)cc1
12600 nM	c1ccc(-c2ccc(-c3cc(NCc4cccnc4)n4nccc4n3)cc2)cc1
37 nM	NC(=O)c1ccc(-c2ccc(-c3cc(NCc4cccnc4)n4ncc(Br)c4n3)cc2)cc1
5530 nM	COc1cc(-c2ccc(-c3cc(NCc4cccnc4)n4nccc4n3)cc2)ccc1C(N)=O
2670 nM	NC(=O)c1ccc(-c2ccc(-c3cc(NCc4cccnc4)n4nccc4n3)cc2)cc1O
130 nM	CCc1cnn2c(NCc3cccnc3)cc(-c3ccc(-c4ccc(CO)cc4)cc3)nc12
